From PubChem BioAssay (NCI)
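48-hour exposure; five concentrations; linearly interpolated endpoints. Definition used: TGI = concentration required for complete inhibition of growth.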

Experiments:
Assay in all cases: inhibition of tumour cell growth, NCI panel, 48 h
EKVX NSCLC = tested on: EKVX NSCLC
HOP-92 NSCLC = tested on: HOP-92 NSCLC
OVCAR-4 ovarian = tested on: OVCAR-4 ovarian
A498 renal = tested on: A498 renal
TK-10 renal = tested on: TK-10 renal
MALME-3M melanoma = tested on: MALME-3M melanoma
OVCAR-8 ovarian = tested on: OVCAR-8 ovarian
IGROV1 ovarian = tested on: IGROV1 ovarian
NCI-H522 lung = tested on: NCI-H522 lung
RXF 393 renal = tested on: RXF 393 renal
MDA-MB-435 = tested on: MDA-MB-435

Compound | TGI (EKVX NSCLC) | TGI (HOP-92 NSCLC) | TGI (OVCAR-4 ovarian) | TGI (A498 renal) | TGI (TK-10 renal) | TGI (MALME-3M melanoma) | TGI (OVCAR-8 ovarian) | TGI (IGROV1 ovarian) | TGI (NCI-H522 lung) | TGI (RXF 393 renal) | TGI (MDA-MB-435)
Nc1ncc(Cl)c(NCC2(CO)CC(CCc3ccccc3)C2)n1 (stereo not given) | > 100 µM | > 100 µM | > 100 µM | > 100 µM | > 100 µM | > 100 µM | > 100 µM | > 100 µM | > 100 µM | > 100 µM | > 100 µM
Cc1ccc2c(c1)C(=O)N1CCC[C@H]1C=N2 | 71 µM | > 86.9 µM | 53.8 µM | > 100 µM | 85.7 µM | 35.2 µM | > 100 µM | > 66.3 µM | 22.5 µM | 16.1 µM | 33.2 µM
CCN(CC)C(=S)SS(=O)(=O)c1ccc(Cl)cc1 | > 100 µM | 50.4 µM | > 100 µM | > 100 µM | > 100 µM | 27.5 µM | 34 µM |  | 0.0995 µM | 39.2 µM | 48.5 µM
CC1=CCC2C3(C)CCC2(C(C)C)C1C3 (stereo not given) (tested in a mixture with another compound) | 50.9 µM | 58.3 µM | > 100 µM | 89.4 µM | 78.7 µM | > 100 µM | 33.2 µM | 35.1 µM | 39.3 µM | 33.2 µM | 88.2 µM
CCN(CC)CCN1C(=O)c2c(c(-c3ccccc3)c3ccccc3c2-c2ccccc2)C1=O | > 100 µM | 86.9 µM | > 100 µM | > 100 µM | > 100 µM | > 100 µM | > 100 µM | > 100 µM | > 100 µM | > 100 µM | > 100 µM
CN(C)Cc1cc(C(C)(C)C)ccc1-c1ccc(C(C)(C)C)cc1CN(C)C | > 100 µM | > 100 µM | > 100 µM | > 100 µM | > 100 µM | > 100 µM | > 100 µM | > 100 µM | > 100 µM | > 100 µM | > 100 µM
Cc1cc(N=Nc2c(O)ccc3ccccc23)ccc1N=Nc1cccc([N+](C)(C)C)c1 | 62.1 µM | > 100 µM | > 100 µM | 98.8 µM | 49.5 µM | 35.2 µM | 57.3 µM | > 22.2 µM | > 26.1 µM | 48.7 µM | > 74.5 µM
C/C1=C/C(C)CC(C)OC(=O)C(C)NC(=O)C(Cc2ccc(O)c(I)c2)N(C)C(=O)C(C)NC(=O)C(C)C1 (stereo not given) |  | 0.0259 µM |  | < 0.0137 µM | 0.046 µM | 3.45 µM | 17.9 µM | < 0.01 µM | 0.649 µM | < 0.0106 µM | 16 µM
CCN(CC)CCNC(=O)c1ccc(I)cc1 | > 100 µM | > 100 µM | > 100 µM | 84.9 µM | > 100 µM | > 100 µM | > 100 µM | > 100 µM | > 100 µM | > 100 µM | > 100 µM
COC(C(=O)C(O)C(C)O)C1CC2C=C3C=C(OC4CC(OC5CC(O)C(OC)C(C)O5)C(OC(C)=O)C(C)O4)C(C)C(=O)C3=C(O)C2=C(O)C1OC1CC(OC2CC(OC3CC(C)(O)C(OC(=O)C(C)C)C(C)O3)C(O)C(C)O2)C(O)C(C)O1 (stereo not given) | < 0.01 µM |  | > 100 µM | < 0.01 µM | > 100 µM | < 0.01 µM | < 0.01 µM | > 100 µM | < 0.01 µM | < 0.01 µM | < 0.01 µM
COC(=O)C1c2c(c3ccccc3n2C(=O)OC)CCN2CCC1C(S(=O)(=O)c1ccccc1)C2=O (stereo not given) | > 100 µM | > 100 µM |  | > 100 µM | > 100 µM | > 100 µM | > 100 µM | > 100 µM | > 100 µM | > 100 µM | > 100 µM
c1ccc(P(CCP(c2ccccn2)c2ccccn2)c2ccccc2)cc1 | 9 µM | > 69.9 µM | > 100 µM | > 100 µM | > 100 µM | > 100 µM | > 100 µM |  |  | 98 µM | > 100 µM
CC(=O)Oc1cc2c(c3ncccc13)OC(C)(C)C2 |  | 27.1 µM | 25.5 µM | 33 µM | 26.3 µM | 23.4 µM | 74.8 µM | 12.4 µM | 8.26 µM | 26.8 µM | 24 µM
C/C(=N\Nc1nc2ccccc2n1C)c1cnccn1 | > 100 µM | 6.83 µM | > 100 µM | > 63.3 µM | > 100 µM | > 100 µM | > 100 µM |  | > 35.8 µM | > 100 µM | > 100 µM
COc1cc(/C=C2/SC(c3ccccc3)N(c3ccccc3)C2=O)cc(OC)c1OC (stereo not given) | > 100 µM | > 100 µM | > 100 µM | > 100 µM | > 100 µM | > 100 µM | > 100 µM |  | > 100 µM | > 100 µM | > 100 µM
